Experimental data as given in the supplement of paper PMC5579334.
± gives the standard deviation of the averaged measurements.

What was measured:
[1] = system: HSC2 (primary human Schwann cells); assay: drug sensitivity score (DSS, CellTiter-Glo viability, 72 h) (DSS (dimensionless)); higher = more sensitive; extreme values may be limits of the assay
Procedure, shortened: (§1)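 MPNST cell lines and primary human Schwann cells were seeded at 750–1000 cells per well into 384-well plates preprinted with each compound at five concentrations in 10-fold steps, then incubated 72 h at 37 °C, 5% CO2. CellTiter-Glo ATP luminescence gave viability, scaled between vehicle and positive-control wells, with duplicates averaged where present. Curves were fitted with a four-parameter logistic model. Percent inhibition refers to the top concentration, while drug sensitivity score and relative IC50, censored at the top concentration, come from these fits.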

YST-1 [2] = assay: as above
Procedure, shortened: as §1

STS26T [3] = assay: as above
Procedure, shortened: as §1

[4] = system: HSC1 (primary human Schwann cells); assay: as above
Procedure, shortened: as §1

HS-Sch-2 [5] = assay: as above
Procedure, shortened: as §1

ST8814 [6] = assay: as above
Procedure, shortened: as §1

HS-PSS [7] = assay: as above
Procedure, shortened: as §1

S1507-2 [8] = assay: as above
Procedure, shortened: as §1

S462 [9] = assay: as above
Procedure, shortened: as §1

[10] = system: HSC2 (primary human Schwann cells); assay: % inhibition of CellTiter-Glo viability at highest tested concentration (72 h), relative to DMSO and benzethonium chloride controls; higher = more inhibition
Procedure, shortened: as §1

YST-1 [11] = assay: as above
Procedure, shortened: as §1

STS26T [12] = assay: as above
Procedure, shortened: as §1

[13] = system: HSC1 (primary human Schwann cells); assay: as above
Procedure, shortened: as §1

HS-Sch-2 [14] = assay: as above
Procedure, shortened: as §1

ST8814 [15] = assay: as above
Procedure, shortened: as §1

HS-PSS [16] = assay: as above
Procedure, shortened: as §1

S1507-2 [17] = assay: as above
Procedure, shortened: as §1

S462 [18] = assay: as above
Procedure, shortened: as §1

[19] = system: HSC2 (primary human Schwann cells); assay: drug sensitivity score (DSS, CellTox-Green cytotoxicity, 72 h) (DSS (dimensionless)); higher = more cytotoxic; extreme values may be limits of the assay
Procedure, shortened: (§2)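 For 72 h at 37 °C, MPNST cell lines and primary human Schwann cells were exposed in 384-well plates to five 10-fold compound dilutions. CellTox-Green, added before seeding at a final 1:1000 dilution, gave fluorescence from DNA released by disrupted cells. Signals were scaled to vehicle and positive-control wells, cultures failing plate quality control were left out, and four-parameter logistic fits were applied. Relative IC50 and drug sensitivity score were derived from the fits, with IC50 censored at the top concentration.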

STS26T [20] = assay: as above
Procedure, shortened: as §2

[21] = system: HSC1 (primary human Schwann cells); assay: as above
Procedure, shortened: as §2

ST8814 [22] = assay: as above
Procedure, shortened: as §2

HS-PSS [23] = assay: as above
Procedure, shortened: as §2

S1507-2 [24] = assay: as above
Procedure, shortened: as §2

| Structure (SMILES) | drug sensitivity score [1] | drug sensitivity score (YST-1 [2]) | drug sensitivity score (STS26T [3]) | drug sensitivity score [4] | drug sensitivity score (HS-Sch-2 [5]) | drug sensitivity score (ST8814 [6]) | drug sensitivity score (HS-PSS [7]) | drug sensitivity score (S1507-2 [8]) | drug sensitivity score (S462 [9]) | % inhibition [10] [%] | % inhibition (YST-1 [11]) [%] | % inhibition (STS26T [12]) [%] | % inhibition [13] [%] | % inhibition (HS-Sch-2 [14]) [%] | % inhibition (ST8814 [15]) [%] | % inhibition (HS-PSS [16]) [%] | % inhibition (S1507-2 [17]) [%] | % inhibition (S462 [18]) [%] | drug sensitivity score [19] | drug sensitivity score (STS26T [20]) | drug sensitivity score [21] | drug sensitivity score (ST8814 [22]) | drug sensitivity score (HS-PSS [23]) | drug sensitivity score (S1507-2 [24]) |
| --- | --- | --- | --- | --- | --- | --- | --- | --- | --- | --- | --- | --- | --- | --- | --- | --- | --- | --- | --- | --- | --- | --- | --- | --- |
| COc1cc(Nc2ncc3c(n2)-c2ccc(Cl)cc2C(c2c(F)cccc2OC)=NC3)ccc1C(=O)O [Alisertib] (max concentration tested 10000 nM) | 17.5 | 15 | 14.9 | 16.7 | 11.3 | 10.5 | 3.93 | 11.77 ± 0.033 | 18.8 ± 1.3 | 57.6 | 47.5 | 58.4 | 65.5 | 64.5 | 59.4 | 44.7 | 50.5 ± 5.3 | 59.1 ± 1 | 0 | 18.8 | 0 | 7.04 | 0 | 4.28 ± 3.2 |
| CC(C)Cn1cnc2c(N)nc3ccccc3c21 [Imiquimod] (max concentration tested 2500 nM) | 0 | 0 | 0 | 0 | 0.45 | 0 | 0.9 | 0 | 0 | 6.67 | 4.76 | 3.07 | -1.61 | 16.9 | -6.88 | 14.8 | -4.77 ± 3.7 | 1.41 ± 6.7 | 0 | 0 | 0 | 0 | 0 | 0 |
| COc1ccc(C2=N[C@@H](c3ccc(Cl)cc3)[C@@H](c3ccc(Cl)cc3)N2C(=O)N2CCNC(=O)C2)c(OC(C)C)c1 [Nutlin-3] (max concentration tested 10000 nM) | 7.69 | 9.36 | 0.0084 | 5.97 | 0 | 4.66 | 1.69 | 0.283 ± 0.4 | 0 | 71.8 | 94.8 | 12.2 | 62.4 | 1.38 | 59.7 | 24.9 | 7.98 ± 12 | 5.05 ± 4.8 | 0 | 0 | 0 | 0.0128 | 0 | 1.97 ± 2.8 |
| C[C@]12O[C@H](C[C@]1(O)CO)n1c3ccccc3c3c4c(c5c6ccccc6n2c5c31)CNC4=O [Lestaurtinib] (max concentration tested 1000 nM) | 13.2 | 3.41 | 5.07 | 11.2 | 7.66 | 6.44 | 5.63 | 9.04 ± 0.52 | 11.7 ± 0.16 | 51.8 | 26.8 | 54.5 | 54.4 | 68.4 | 62.3 | 45.7 | 76.7 ± 2.5 | 96.6 ± 1.5 | 0.0333 | 0.547 | 0.556 | 1.63 | 0 | 1.52 ± 2.1 |
| CCOC(=O)CCNc1cc(N2CCc3ccccc3CC2)nc(-c2ccccn2)n1 [GSK-J4] (max concentration tested 100000 nM) | 15.2 | 16.3 | 14.6 | 14.8 | 15.9 | 14.1 | 14.4 | 13.4 ± 0.92 | 16.3 ± 0.36 | 96.5 | 100 | 96.1 | 95.8 | 99 | 97.1 | 99.4 | 97.2 ± 1.9 | 95.2 ± 0.48 | 7.09 | 8.17 | 7.1 | 6.13 | 4.79 | 3.11 ± 4.4 |
| C[C@@H]1C[C@H]2[C@@H]3CCC4=CC(=O)C=C[C@]4(C)[C@@]3(F)[C@@H](O)C[C@]2(C)[C@@]1(O)C(=O)CO [Dexamethasone] (max concentration tested 10000 nM) | 0 | 2.91 | 0 | 0 | 0 | 4.78 | 0 | 1.35 ± 1.9 | 0.0796 ± 0.11 | -7.28 | 6.77 | 3.98 | -11.8 | 11.7 | 22.9 | -11.7 | 16.5 ± 13 | 9.85 ± 6.5 | 0 | 0 | 0 | 0 | 0 | 0 |
| C[C@]1(c2nc3c(C(N)=O)cccc3[nH]2)CCCN1 [Veliparib] (max concentration tested 10000 nM) | 0.954 | 4.89 | 0 | 0.338 | 0 | 0 | 0 | 1.93 ± 2.7 | 0.0431 ± 0.061 | 18.2 | 49 | 10.6 | 14.6 | 2.46 | 9.88 | 10 | 10.9 ± 5.5 | 12 ± 3.7 | 0 | 0 | 0 | 0 | 0 | 0 |
| Cn1cncc1[C@@](N)(c1ccc(Cl)cc1)c1ccc2c(c1)c(-c1cccc(Cl)c1)cc(=O)n2C [Tipifarnib] (max concentration tested 10000 nM) | 8.8 | 13.9 | 14 | 6.55 | 7.08 | 8.98 | 5.39 | 14.3 ± 0.82 | 10.58 ± 0.032 | 66.7 | 73.1 | 87.3 | 69.7 | 78 | 59.9 | 46.5 | 64.095 ± 0.013 | 75.3 ± 2 | 0 | 9.1 | 0.209 | 0 | 0 | 0 |
| O=C(O)c1ccc(-c2c[nH]c3ncc(-c4ccccc4)cc23)cc1C1CCCC1 (max concentration tested 10000 nM) | 0.756 | 0 | 0 | 0 | 1.47 | 0 | 0.42 | 0 | 0 | 18.7 | 9.07 | -4.89 | 8.07 | 31 | 7.81 | 19.2 | -2.03 ± 9.5 | 4.19 ± 1.2 | 0 | 0 | 0 | 0 | 0 | 0.00895 ± 0.013 |
| COC1=CC(c2cc3ccccc3[nH]2)=N/C1=C\c1[nH]c(C)cc1C [Obatoclax] (max concentration tested 10000 nM) | 8.2 | 2.23 | 5.87 | 8.07 | 2.53 | 5.7 | 2.94 | 7.89 ± 1.2 | 7.25 ± 0.51 | 81.8 | 25.6 | 81.5 | 80.1 | 31.2 | 93.7 | 39.5 | 95.5 ± 2 | 89.3 ± 2.9 | 2.43 | 3.1 | 4.21 | 4.99 | 0 | 5.25 ± 0.56 |
| Cc1cc2c(F)c(Oc3ncnn4cc(OC[C@@H](C)O)c(C)c34)ccc2[nH]1 [Brivanib] (max concentration tested 1000 nM) | 0 | 0 | 0 | 0 | 0 | 0 | 0 | 0 | 0 | -0.326 | 0.09 | 4.35 | -5.58 | -0.92 | -1.65 | -3.58 | -1.44 ± 10 | 3.36 ± 7.5 | 0 | 0 | 0 | 0 | 0 | 0 |
| CCc1c2c(nc3ccc(OC(=O)N4CCC(N5CCCCC5)CC4)cc13)-c1cc3c(c(=O)n1C2)COC(=O)[C@]3(O)CC [Irinotecan] (max concentration tested 10000 nM) | 8.79 | 12 | 6.61 | 9.72 | 8.31 | 9.68 | 3.76 | 6.91 ± 0.48 | 9.83 ± 0.34 | 72.5 | 71.2 | 76.6 | 63.6 | 81.5 | 93.9 | 58.3 | 75.8 ± 0.88 | 98.1 ± 0.28 | 5.29 | 3.22 | 6.2 | 8.16 | 3.15 | 2.16 ± 1.5 |
| NC(=O)NO [Hydroxyurea] (max concentration tested 100000 nM) | 0 | 0 | 0 | 0.337 | 0.56 | 0 | 0 | 0 | 0 | 9.58 | 8.97 | 3.66 | 16.3 | 20.8 | 3.1 | 9.89 | 5.18 ± 7.5 | -3.38 ± 4.4 | 0 | 0 | 0 | 0 | 0 | 0 |
